Activity calls are given as the source filed them.
Experiments:
[1] = target: T1, Tyrosine-protein phosphatase non-receptor type 7 (Homo sapiens, UniProt P35236); test: inhibitors of human HePTP phosphatase, […], biochemical, absorbance, leukemia target (AID 521); format: functional
T1 sequence (P35236 whole entry): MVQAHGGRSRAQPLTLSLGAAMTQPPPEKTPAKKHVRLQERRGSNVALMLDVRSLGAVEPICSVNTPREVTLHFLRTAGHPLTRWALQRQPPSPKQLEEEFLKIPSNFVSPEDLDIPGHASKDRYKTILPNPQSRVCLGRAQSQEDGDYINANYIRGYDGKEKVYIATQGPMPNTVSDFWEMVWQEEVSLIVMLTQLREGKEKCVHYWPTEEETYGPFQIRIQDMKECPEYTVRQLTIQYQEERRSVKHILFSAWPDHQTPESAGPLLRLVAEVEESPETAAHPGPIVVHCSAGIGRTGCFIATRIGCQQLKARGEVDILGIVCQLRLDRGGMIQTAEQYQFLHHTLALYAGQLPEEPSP

[2] = cytotoxicity in HEK-293T cells, dose response, cytotoxicity control for TCR NF-kB inhibitor project, luminescence, T-cell screen hits (AID 489026); format: functional, cell-based;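 note: cells exposed to compound about 14 hours before the viability readout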
[3] = target: Heat shock protein HSP 90-alpha (Homo sapiens, UniProt P07900); test: Luminescence-based dose response biochemical high throughput screening assay for inhibitors of the Heat Shock Protein 90 (HSP90). [Related pubchem assays: 1831 (Summary AID.), 1846 (Confirmation screen.), 1789 (Primary screen.)]
[4] = target: Mitogen-activated protein kinase 10 (Homo sapiens, UniProt P53779); test: Dose response biochemical screening assay for inhibitors of c-Jun N-Terminal Kinase 3 (JNK3). [Related pubchem assays: 746 ]
[5] = THP-1 cell cytotoxicity, dose response, cytotoxicity control for Vif-APOBEC3G degradation inhibitor project, THP-1 cells (AID 1117359); format: functional; conditions: Human immunodeficiency virus 1, THP-1
[6] = inhibitors of Vif binding to APOBEC3G peptide, primary screen, biochemical, TR-FRET, GST-Vif 1-94, biotin-A3G peptide, dose response retest (AID 1117319); format: functional;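 note: TR-FRET signal of purified GST-Vif binding a biotinylated A3G peptide; inhibitors lower the FRET signal by blocking Vif and A3G binding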
[7] = target: T2, COUP transcription factor 2 (Homo sapiens, UniProt P24468); test: Luminescence-based cell-based high throughput dose response assay to identify inhibitors of COUP-TFII (NR2F2).; format: functional;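 note: HEK293 cells transiently cotransfected with COUP-TFII expression vector and reporter; luciferase reporter luminescence driven by COUP-TFII from the pX2-168 reporter plasmid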
T2 sequence (P24468 whole entry): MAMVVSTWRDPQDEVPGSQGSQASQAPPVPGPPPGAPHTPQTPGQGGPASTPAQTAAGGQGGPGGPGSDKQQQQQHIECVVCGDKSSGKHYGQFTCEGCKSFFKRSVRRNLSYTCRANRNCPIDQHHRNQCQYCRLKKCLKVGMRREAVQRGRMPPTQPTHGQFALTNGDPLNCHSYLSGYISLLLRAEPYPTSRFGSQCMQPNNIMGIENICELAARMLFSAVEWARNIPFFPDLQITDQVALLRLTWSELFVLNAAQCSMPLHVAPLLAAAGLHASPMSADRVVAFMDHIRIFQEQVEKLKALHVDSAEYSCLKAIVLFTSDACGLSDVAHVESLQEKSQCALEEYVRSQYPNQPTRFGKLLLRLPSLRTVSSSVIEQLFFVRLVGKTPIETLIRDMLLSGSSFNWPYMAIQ

[8] = inhibitors of intracellular T. cruzi replication, confirmation, NIH3T3 host cells, beta-gal luminescence (AID 2044); format: functional, cell-based;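 note: intracellular parasites grown in NIH/3T3 mouse fibroblasts as host cells; luminescent beta-galactosidase reporter signal from transgenic T. cruzi replicating inside host cells; inhibitors lower the luminescence signal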
[9] = cytotoxicity toward NIH3T3 fibroblasts, dose response, counter-screen, cell-based, ATP luminescence, mouse fibroblasts (AID 2010); format: functional;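 note: cells exposed to compound for about 90 hours before reading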
[10] = Vero cell cytotoxicity, dose response, cytotoxicity control for Vif-APOBEC3G degradation inhibitor project, Vero cells (AID 1117358); format: functional; conditions: Human immunodeficiency virus 1, Vero
[11] = Luminescence Cell-Based Dose Confirmation HTS to Identify Activators of 5'UTR Stem-Loop Driven Alpha-Synuclein mRNA Translation in H4 Neuroglioblastoma Cells. [Related pubchem assays: 1829 (Project Summary), 1814 (Primary HTS)]; format: functional
[12] = Luminescence Cell-Based Dose Response HTS to Identify Activators of Luciferase Translation or Activity in H4 […] Cells. [Related pubchem assays: 1829 (Project Summary), 1814 (Primary HTS)]; format: functional
cells [13] = format: functional, cell-based
H4 = test: Luminescence Cell-Based Dose Response HTS to Identify Activators of 5'UTR Stem-Loop Driven Prion Protein mRNA Translation in H4 Neuroglioblastoma Cells. [Related pubchem assays: 1829 (Project Summary), 1814 (Primary HTS)]; format: functional; conditions: Homo sapiens
cells [14] = format: functional, cell-based; remark: listed apart in the source
[15] = target: T3, Oxysterols receptor LXR-beta (Homo sapiens, UniProt P55055); format: functional, cell-based;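 note: agonist activity at LXR measured by a cell-based luminescence readout across a dose range, run as a counterscreen for daf-12 agonists; HEK293 cells with Gal4-LXR fusion and GAL4-driven luciferase reporter; potency for activation of Gal4-LXR reporter so compounds are agonists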
T3 sequence (P55055 whole entry): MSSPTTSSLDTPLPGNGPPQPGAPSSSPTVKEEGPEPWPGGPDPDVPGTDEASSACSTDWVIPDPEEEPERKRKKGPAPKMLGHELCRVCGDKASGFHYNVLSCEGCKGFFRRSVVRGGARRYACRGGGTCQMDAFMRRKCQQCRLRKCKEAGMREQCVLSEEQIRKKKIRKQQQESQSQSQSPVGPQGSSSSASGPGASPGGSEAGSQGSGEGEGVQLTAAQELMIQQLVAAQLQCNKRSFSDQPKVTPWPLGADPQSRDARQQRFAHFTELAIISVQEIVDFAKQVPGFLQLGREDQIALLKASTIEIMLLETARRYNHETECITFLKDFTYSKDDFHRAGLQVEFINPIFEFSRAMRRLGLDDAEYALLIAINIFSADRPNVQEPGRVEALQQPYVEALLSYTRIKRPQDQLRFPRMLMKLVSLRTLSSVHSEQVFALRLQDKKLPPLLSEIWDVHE

Jurkat = test: antigen receptor-induced NF-kB inhibitors, dose response, Jurkat, luciferase reporter, luminescence, B- and T-cell (AID 489004); format: functional, cell-based; conditions: Homo sapiens;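 note: NF-kB luciferase reporter Jurkat cells stimulated with PMA plus ionomycin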
[16] = cytotoxicity in HEK-293T NF-kB-Luc cells, dose response, cytotoxicity control for B/T-cell NF-kB inhibitor project, cell-based, uHTS hits (AID 489019); format: functional;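 note: IC50 reflects cytotoxicity as loss of cell viability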
[17] = target: T4, Microphthalmia-associated transcription factor (Homo sapiens, UniProt O75030); test: TRPM1 promoter luciferase signal decrease, dose response, MITF inhibitor project, cell-based, SK-MEL-5, cherry-picked, set 3 (AID 493073); format: functional
T4 sequence (O75030 whole entry): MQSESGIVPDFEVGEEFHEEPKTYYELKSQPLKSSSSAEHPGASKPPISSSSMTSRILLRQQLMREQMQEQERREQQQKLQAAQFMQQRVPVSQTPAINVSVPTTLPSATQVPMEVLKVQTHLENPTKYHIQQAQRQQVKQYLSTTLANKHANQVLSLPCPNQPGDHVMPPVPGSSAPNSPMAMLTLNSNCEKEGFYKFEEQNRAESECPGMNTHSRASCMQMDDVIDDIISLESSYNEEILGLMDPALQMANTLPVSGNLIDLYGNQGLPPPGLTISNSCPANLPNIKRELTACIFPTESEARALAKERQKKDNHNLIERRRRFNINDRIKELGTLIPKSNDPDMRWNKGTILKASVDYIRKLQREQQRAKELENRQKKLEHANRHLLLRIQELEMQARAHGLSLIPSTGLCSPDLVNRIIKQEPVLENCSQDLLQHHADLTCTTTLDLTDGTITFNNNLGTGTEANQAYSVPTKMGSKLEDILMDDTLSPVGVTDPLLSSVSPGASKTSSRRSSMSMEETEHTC

INS1 = test: beta cell apoptosis inhibitors, cytokine rescue, dose response, luminescence, retest (AID 449756); format: functional, cell-based; conditions: Rattus norvegicus;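 note: cell death triggered by IL-1 beta plus TNF-alpha plus IFN-gamma mixture; protective hits raise ATP signal compared with cytokine alone wells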
[18] = Shn3 3'UTR reporter inhibitors, dose response, cell-based, Clone20 osteoblasts, firefly luciferase, cherry-picked (AID 624132); format: functional;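 note: firefly luciferase luminescence from reporter carrying the Shn3 3'UTR in osteoblasts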
[19] = HepG2 cell cytotoxicity, dose response, cytotoxicity control for Shn3 inhibitor project, CellTiter-Glo, cherry-picked (AID 624134); format: functional, cell-based
[20] = control 3'UTR Renilla luciferase suppression, dose response, counter-screen for Shn3 inhibitor project, cell-based, Clone20-Shn3RL, cherry-picked (AID 624133); format: functional
[21] = inhibitors of HIV Env-driven cell fusion, dose response, cherry-pick (AID 652057); format: functional, cell-based
[22] = ZM109 Env clade C HIV-1 fusion inhibitors, dose response, HeLa effector, CEM target cells, luciferase, cherry-pick (AID 652058); format: functional, cell-based
[23] = off-target signal loss in HeLa-CEM21 co-culture – HeLa F-luc CTL cells, cherry-picked, counter-screen for HIV-1 Env fusion inhibitor project, dose response (AID 652040); format: functional, cell-based;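 note: potency for signal decrease marking cytotoxic or nonspecific inhibition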
[24] = inhibitors of clade B AD8 Env fusion, dose response, cell-based, cherry-pick (AID 652062); format: functional;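 note: luciferase signal from cell-cell fusion driven by HIV-1 clade B AD8 Env; potency is for inhibitors of fusion seen as a drop in luminescence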
Leucine aminopeptidase = target: T5, Leucine aminopeptidase (Plasmodium falciparum 3D7, UniProt Q8IL11); test: P. falciparum M17LAP inhibitors, primary screen, biochemical, fluorogenic H-Leu-NHMec substrate, 1536-well (AID 1619); format: functional
T5 sequence (Q8IL11 whole entry): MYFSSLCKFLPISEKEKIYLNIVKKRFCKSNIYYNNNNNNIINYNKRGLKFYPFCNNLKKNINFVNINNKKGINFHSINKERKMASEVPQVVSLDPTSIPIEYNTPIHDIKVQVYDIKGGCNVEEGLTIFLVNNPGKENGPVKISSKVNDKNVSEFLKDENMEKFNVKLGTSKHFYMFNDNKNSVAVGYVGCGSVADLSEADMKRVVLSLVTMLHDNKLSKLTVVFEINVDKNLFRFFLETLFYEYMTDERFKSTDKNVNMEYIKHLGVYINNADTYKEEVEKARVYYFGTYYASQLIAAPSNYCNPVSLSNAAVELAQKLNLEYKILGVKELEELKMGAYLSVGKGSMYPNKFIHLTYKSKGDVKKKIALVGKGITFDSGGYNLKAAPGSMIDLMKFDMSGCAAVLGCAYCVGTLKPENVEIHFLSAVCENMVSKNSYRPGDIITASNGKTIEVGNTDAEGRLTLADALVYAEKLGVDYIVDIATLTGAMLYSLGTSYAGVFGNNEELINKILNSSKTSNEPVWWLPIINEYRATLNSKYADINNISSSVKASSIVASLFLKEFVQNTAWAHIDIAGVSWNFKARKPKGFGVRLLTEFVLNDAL

[25] = target: FAD-linked sulfhydryl oxidase ALR (Homo sapiens, UniProt P55789); test: inhibitors of human ALR sulfhydryl oxidase, dose response, biochemical, H2O2 detection, luminescence, cherry-pick (AID 493248)
Sequence of FAD-linked sulfhydryl oxidase ALR (P55789 whole entry): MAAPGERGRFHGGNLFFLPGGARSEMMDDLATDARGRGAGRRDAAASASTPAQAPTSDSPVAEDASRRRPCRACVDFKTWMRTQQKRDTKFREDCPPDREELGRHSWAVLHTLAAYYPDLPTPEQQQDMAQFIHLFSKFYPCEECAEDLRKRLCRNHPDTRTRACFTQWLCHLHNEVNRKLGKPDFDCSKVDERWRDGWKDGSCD

Sequence of Mitogen-activated protein kinase 10 (P53779 whole entry): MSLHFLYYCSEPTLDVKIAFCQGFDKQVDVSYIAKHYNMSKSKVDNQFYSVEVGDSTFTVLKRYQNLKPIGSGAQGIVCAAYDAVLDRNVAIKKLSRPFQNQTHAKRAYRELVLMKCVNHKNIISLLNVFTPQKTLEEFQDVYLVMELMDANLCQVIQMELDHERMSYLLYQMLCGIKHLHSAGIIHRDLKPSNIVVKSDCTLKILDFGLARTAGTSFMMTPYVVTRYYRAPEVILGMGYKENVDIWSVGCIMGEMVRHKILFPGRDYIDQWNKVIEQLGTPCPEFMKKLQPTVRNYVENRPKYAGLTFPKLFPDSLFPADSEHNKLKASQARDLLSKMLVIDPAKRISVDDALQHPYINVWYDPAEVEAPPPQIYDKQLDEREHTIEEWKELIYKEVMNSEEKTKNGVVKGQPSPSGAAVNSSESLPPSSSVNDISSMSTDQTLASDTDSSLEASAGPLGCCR

O=C(O)C1(c2ccc(Cl)cc2)CCC1
IC50 [1]: > 100 µM (not active)

CN(C)c1ccc(-c2nn3c(-c4ccccc4Cl)nnc3s2)cc1
IC50 [1]: > 100 µM (not active) | IC50 [2]: > 80 µM (inactive)

COc1cc(N2Cc3ccccc3C2)ccc1C=O
IC50 [3]: > 7 µM (active)

Cc1ccccc1-n1nc(C)c2cc(C(=O)NCc3cccnc3)sc21
IC50 [4]: 10.6 µM (not active)

CC(NC(=O)c1ccco1)C(c1cccs1)N1CCOCC1 (stereo not drawn)
IC50 [1]: > 100 µM (not active)

COc1cc(NC(=O)C2CC(c3cccc(OC)c3OC)=NO2)cc(OC)c1OC (stereo not drawn)
IC50 [4]: 4.19 µM (active)

COc1ccc(CCNCc2ccc(C)s2)cc1OC
CC50 [5]: > 40 µM (active) | IC50 [6]: > 100 µM (active)

COc1ccc(CCNC(=O)C(C)n2nc(C)c3c(C)n(-c4ccc(C)cc4)nc3c2=O)c(OC)c1 (stereo not drawn)
IC50 [7]: 5.2 µM (active)

CCc1ccc(N/C(SCc2cccc(F)c2)=C(/C#N)C(=O)NCc2ccco2)cc1
EC50 [8]: 1.7 µM (active) | EC50 [9]: 10.4 µM (active) | CC50 [10]: > 40 µM (active)

C=CCOc1c(CNc2cccc(C(=O)O)c2)cccc1OC
IC50 [3]: 2.39 µM (active)

O=C(NCCCn1ccnc1)c1cc(-c2cccs2)on1
EC50 [11]: 12.4 µM (active) | EC50 [12]: 16.9 µM (active) | EC50 (cells [13]): 13.2 µM (active) | EC50 (H4): 12.3 µM (active) | EC50 (cells [14]): > 350 µM (not active) | EC50 [15]: > 67.5 µM (inactive)

COc1ccc(S(=O)(=O)NC2CC(C)(C)NC(C)(C)C2)c(C)c1C
IC50 [6]: > 100 µM (active)

COc1cc(NC(=O)COc2cc(O)c3c(c2)OC(C)(C)CC3=O)cc(OC)c1OC
IC50 (Jurkat): 39.9 µM (inactive) | IC50 [16]: 69.1 µM (inactive) | AC50 [17]: 5.36 µM (active) | AC50 (INS1): 3.99 µM (active) | AC50 [18]: 0.354 µM (active) | AC50 [19]: 2.04 µM (active) | AC50 [20]: 0.727 µM (active) | IC50 [7]: 2.54 µM (active)

CN1CCN(c2ccccc2NC(=O)C(Cc2ccccc2)n2cccc2)CC1 (stereo not drawn)
AC50 [21]: 6.11 µM (active) | AC50 [22]: 6.39 µM (active) | AC50 [23]: 12.3 µM (active) | AC50 [24]: 17.5 µM (active) | IC50 [6]: > 100 µM (active)

Fc1ccc(C(CCCn2nnc(-c3cccnc3)n2)c2ccc(F)cc2)cc1
EC50 [11]: 13.7 µM (active) | EC50 [12]: 16.3 µM (active) | EC50 (H4): > 120 µM (not active) | EC50 [8]: 2.22 µM (active) | EC50 [9]: > 30 µM (not active) | CC50 [10]: > 40 µM (active)

Cc1ccc(-c2csc(NC(=O)C3CCN(S(=O)(=O)c4cccs4)CC3)n2)cc1
IC50 (Jurkat): 8.06 µM (active) | IC50 [16]: > 80 µM (inactive) | IC50 [7]: 8.11 µM (active)

Cc1c(C(=O)NCc2ccc(C(C)C)cc2)sc(=O)n1Cc1ccc(S(=O)(=O)N(C)C)cc1
IC50 [7]: 6.46 µM (active)

COc1cc(/C=N/Nc2ccc(Cl)c(C(=O)O)c2)ccc1OC(=O)c1cccs1
IC50 (Leucine aminopeptidase): 55.5 µM (active) | IC50 [3]: 1.32 µM (active) | AC50 [25]: 5.23 µM (active)

CC(=O)OCC1=C(C(=O)O)N2C(=O)[C@@H](NC(=O)Cc3cccs3)[C@H]2SC1 [CEPHALOTHIN SODIUM]
IC50 [1]: 0.92 µM (active)
